Measurements from publication PMC4186413, “Identification of metabolic pathways and enzyme systems involved in the in vitro human hepatic metabolism of dronedarone, a potent new oral antiarrhythmic drug” (Pharmacology Research & Perspectives, 2014).

Columns and labels:
[1] = tested on: cryopreserved human hepatocytes in primary culture; experiment: Unchanged drug disappearance / intrinsic metabolic clearance in primary cultures of cryopreserved human hepatocytes; assay type: in vitro ADME; conditions: for In vitro intrinsic hepatic clearance, Mean ± SD: mean of four hepatocyte preparations
Experimental: Cryopreserved human hepatocytes were plated on 48-well collagen-coated plastic plates in a chemically defined medium adapted from Isom and Georgoff ([1984]), consisting of a 50/50 (v/v) mixture of Ham F12/Williams E medium supplemented with 10% decomplemented fetal calf serum, 10 mg/L insulin, 0.8 mg/L glucagon and antibiotics (100 IU penicillin and 100 μg/mL streptomycin). After 4–6 h at 37°C in a 5% CO2 and 100% humidified atmosphere, period during which hepatocytes attached to the collagen-matrix, the plating medium was removed and replaced by the same serum-free culture medium supplemented with HEPES (3.6 g/L), ethanolamine (4 mg/L), transferrin (10 mg/L), linoleic acid albumin (1.4 mg/L), glucose (252 mg/L), sodium pyruvate (44 mg/L), ascorbic acid (50 mg/L), arginine (104 mg/L), and L-glutamine (0.7 g/L).
(§1) Experiments were performed in 48-well plastic plates coated with rat tail Collagen type I. Plates were seeded with 0.16 × 10^5 hepatocytes per well in a final volume of 0.2 mL and incubated at 37°C under a 95% humidified air and 5% CO2 atmosphere. After 3 h during which cells were allowed to attach, the medium was renewed with 0.1 mL serum-free medium. Then, the investigated drug or metabolic probe(s) were added directly to the incubation medium in the absence or the presence of inhibitors such as either ketoconazole as a specific and potent CYP3A inhibitor (3 μmol/L final concentration), clorgyline (0.25 μmol/L final concentration) as a potent MAO-A inhibitor or ABT as a potent but nonselective CYP isoforms inhibitor (1 mmol/L final concentration) (Fabre et al. [1988]; Bourrié et al. [1996]; Klieber et al. [2008]). Regardless of the final concentration investigated, the final solvent (DMSO) concentration never exceeded 0.2% (v/v).
(§2) To determine the metabolism of the different compounds (metabolic probes, dronedarone, N-debutyl-dronedarone, propanoic acid-dronedarone, phenol-dronedarone, and C-dealkyl-dronedarone), kinetic studies were performed over 0–24 h. For each time point, 0.1 mL of acetonitrile was added to the specific well for protein precipitation, and both extracellular medium and the cell fraction were scraped together. Cell extracts were transferred to a glass tube and stored at −20°C until analysis. Before analysis, cell homogenates were sonicated for a few seconds, homogenized and centrifuged at 6000 g for 10 min. Supernatant fluids were then analyzed for the different drugs and their specific metabolites.
LC/MS-MS analysis was performed using an Acquity UPLC System I-Class equipped with a Waters Acquity UPLC BEH C18 column (2.1 mm i.d. × 100 mm length, 1.7 μm particle size) coupled to a Xevo TQS mass spectrometer (all from Waters, Milford, MA) used in electrospray ion positive mode.
In human hepatocytes, the intrinsic in vitro metabolic clearances (Clint) were calculated using WinNonLin PK analysis software version 5.2. All disappearance kinetics data were fitted with a model using the following equation: [drawing 2] where ke is the elimination rate constant expressed in h^−1, and V is the incubation volume expressed in mL normalized to 10^6 hepatocytes. The equation was applied to the initial (linear) part of the concentration–time curve.
(§3) The kinetics of drug disappearance were investigated using four different cryopreserved human hepatocyte preparations in primary cultures following incubation with either dronedarone or its metabolites at a concentration of 5 μmol/L. Incubations were performed either in the absence, that is control conditions, or in the presence of enzyme system inhibitors such as 3 μmol/L ketoconazole (specific and potent inhibitor of CYP3A4/5), 1 mmol/L ABT (a potent and […] inhibitor of total CYPs), or 0.25 μmol/L clorgyline (a potent MAO-A inhibitor) (Dorris [1982]). Kinetic studies were performed over 24 h.

MAO = biological target: T1, MAO (Homo sapiens, UniProt P21397); experiment: Contribution of MAO to hepatocyte clearance (clorgyline inhibitory effect); assay type: in vitro ADME; conditions: for Effect of clorgyline on metabolism in hepatocytes: 5 μmol/L drug; for fm MAO, Mean ± SD: mean of hepatocyte preparations
T1 construct: host or cells: cryopreserved human hepatocytes in primary culture
T1 sequence (P21397 1-527): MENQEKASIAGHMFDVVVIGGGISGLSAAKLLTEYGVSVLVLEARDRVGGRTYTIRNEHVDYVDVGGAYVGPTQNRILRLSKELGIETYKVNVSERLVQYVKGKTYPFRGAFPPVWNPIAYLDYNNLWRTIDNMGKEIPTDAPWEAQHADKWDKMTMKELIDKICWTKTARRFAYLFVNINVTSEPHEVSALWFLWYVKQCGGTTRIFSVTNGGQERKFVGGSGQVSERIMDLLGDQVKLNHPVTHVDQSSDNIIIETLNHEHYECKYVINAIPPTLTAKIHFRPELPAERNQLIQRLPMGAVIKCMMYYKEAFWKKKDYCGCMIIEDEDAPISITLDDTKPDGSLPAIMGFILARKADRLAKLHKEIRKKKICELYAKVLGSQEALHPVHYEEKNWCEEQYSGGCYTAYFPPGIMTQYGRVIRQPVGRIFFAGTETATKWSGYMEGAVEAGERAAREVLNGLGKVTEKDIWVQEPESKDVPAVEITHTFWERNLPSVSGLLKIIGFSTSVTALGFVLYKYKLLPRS
Experimental: as §1, §2
The fraction metabolized (fm) by MAO, CYP3A or total CYPs was determined using the following equation: [drawing 3] where: kei is the elimination rate constant (expressed in h^−1) in the presence of the inhibitor.
as §3

[2] = hepatocyte preparation BD-91, 5 μmol/L
[3] = hepatocyte preparation BD-296, 5 μmol/L
[4] = hepatocyte preparation HU-1359, 5 μmol/L
[5] = hepatocyte preparation IVT-IBG, 5 μmol/L
[6] = HU-1358, 0.25 μmol/L clorgyline
[7] = IVT-IBG, 0.25 μmol/L clorgyline

Row | SMILES | In vitro intrinsic hepatic clearance [1, 2] | In vitro intrinsic hepatic clearance [1, 3] | In vitro intrinsic hepatic clearance [1, 4] | In vitro intrinsic hepatic clearance [1, 5] | Mean maximal concentration of metabolite formed ([1]; hepatocytes incubated with 5 μmol/L dronedarone, control conditions without inhibitors) | In vitro intrinsic hepatic clearance, Mean ± SD ([1]; 5 μmol/L) | Effect of clorgyline on metabolism in hepatocytes (MAO; 0.25 μmol/L clorgyline) | fm MAO (MAO; BD-91, 0.25 μmol/L clorgyline) | fm MAO (MAO; BD-296, 0.25 μmol/L clorgyline) | fm MAO (MAO; [6]) | fm MAO (MAO; [7]) | fm MAO, Mean ± SD (MAO; 0.25 μmol/L clorgyline) | In vitro intrinsic hepatic clearance, Mean ± SD ([1]; 5 μmol/L, listed as phenol-dronedarone) | Drug metabolized within 6 h of incubation ([1]; 5 μmol/L, control conditions)
1 | CCCCN(CCCC)CCCOc1ccc(C(=O)O)cc1 [C-dealkyl-dronedarone] | 0.003 mL·h^−1·10^6 cells | 0.002 mL·h^−1·10^6 cells | 0.004 mL·h^−1·10^6 cells | 0.003 mL·h^−1·10^6 cells |  | 0.003 ± 0.001 mL·h^−1·10^6 cells | no effect |  |  |  |  |  |  | 
2 | CCCCc1oc2ccc(NS(C)(=O)=O)cc2c1C(=O)c1ccc(O)cc1 [Phenol-dronedarone] | 0.44 mL·h^−1·10^6 cells | 0.70 mL·h^−1·10^6 cells | 0.57 mL·h^−1·10^6 cells | 0.75 mL·h^−1·10^6 cells |  | 0.62 ± 0.12 mL·h^−1·10^6 cells | did not contribute |  |  |  |  |  | 0.61 ± 0.12 mL·h^−1·10^6 cells | 
3 | CCCCc1oc2ccc(NS(C)(=O)=O)cc2c1C(=O)c1ccc(OCCC(=O)O)cc1 [Propanoic acid-dronedarone] | 0.06 mL·h^−1·10^6 cells | 0.17 mL·h^−1·10^6 cells | 0.20 mL·h^−1·10^6 cells | 0.14 mL·h^−1·10^6 cells |  | 0.14 ± 0.05 mL·h^−1·10^6 cells | no inhibitory effect | 12% | 0% | 0% | 0% | 3 ± 5% |  | 

Second part, the compound after the results:

Row | In vitro intrinsic hepatic clearance [1, 2] | In vitro intrinsic hepatic clearance [1, 3] | In vitro intrinsic hepatic clearance [1, 4] | In vitro intrinsic hepatic clearance [1, 5] | Mean maximal concentration of metabolite formed ([1]; hepatocytes incubated with 5 μmol/L dronedarone, control conditions without inhibitors) | In vitro intrinsic hepatic clearance, Mean ± SD ([1]; 5 μmol/L) | Effect of clorgyline on metabolism in hepatocytes (MAO; 0.25 μmol/L clorgyline) | fm MAO (MAO; BD-91, 0.25 μmol/L clorgyline) | fm MAO (MAO; BD-296, 0.25 μmol/L clorgyline) | fm MAO (MAO; [6]) | fm MAO (MAO; [7]) | fm MAO, Mean ± SD (MAO; 0.25 μmol/L clorgyline) | In vitro intrinsic hepatic clearance, Mean ± SD ([1]; 5 μmol/L, listed as phenol-dronedarone) | Drug metabolized within 6 h of incubation ([1]; 5 μmol/L, control conditions) | SMILES
4 | 0.18 mL·h^−1·10^6 cells | 0.10 mL·h^−1·10^6 cells | 0.10 mL·h^−1·10^6 cells | 0.08 mL·h^−1·10^6 cells | around 0.6 μmol/L | 0.13 ± 0.03 mL·h^−1·10^6 cells | potently inhibited | 88% | 80% | 86% | 83% | 84 ± 3% |  |  | CCCCNCCCOc1ccc(C(=O)c2c(CCCC)oc3ccc(NS(C)(=O)=O)cc23)cc1 [N-debutyl-dronedarone]
5 | 0.49 mL·h^−1·10^6 cells | 0.58 mL·h^−1·10^6 cells | 0.14 mL·h^−1·10^6 cells | 0.10 mL·h^−1·10^6 cells |  | 0.33 ± 0.21 mL·h^−1·10^6 cells | minor inhibitory effect | 18% |  | 23% | 43% | 29 ± 14% |  | more than 80% | CCCCc1oc2ccc(NS(C)(=O)=O)cc2c1C(=O)c1ccc(OCCCN(CCCC)CCCC)cc1.Cl [Dronedarone, N-(2-Butyl-3-(4-(3-(dibutylamino)propoxy)benzoyl)-5-benzofuranyl)methanesulfonamide, hydrochloride]
